According to patent publication US20010049353A1, “Method of using secretin and compositions made therefrom for the treatment of autism and other neurological, behavioral and immunological disorders” (Repligen Corporation, priority 1998, published 2001):
No end group written: not given here.

Experiments:
[1] = test system: patient, a child with symptoms of autism; assay: Intravenous secretin infusion in a child with symptoms of autism (Example 1); type: in vivo, human
Source text: The present invention will be better understood from the following examples which are given by way of illustration and not by way of limitation. The patient, the same in both examples, is a child with symptoms of autism.
The patient in the present examples developed normally […], with the exception of gastrointestinal problems (i.e., chronic diarrhea and constipation) which began at about six months. At about thirteen months, when whole milk was introduced into their diet, the patient began having reoccurring ear infections. At about fourteen months, the patient appeared to lose the ability to process language, first receptively (at about 14 months) then expressively (at about 16 months). The patient also experienced episodes of “shivers” that appeared to be intermittent seizures.
After consulting with numerous neurologists, pediatricians, child development specialists, audiologists, endocrinologists, allergists, and other medical professionals, no consistent diagnosis had been reached. […] The term autism is used herein for reference purposes only, and this invention is intended to apply to any number of pervasive developmental disorders as well as neurological and immunological disorders.
Further, the patient's secretin cells prior to receiving treatment, measured at a level of 9, are far below the normal limit in the range of 20-70.
When the patient was […], the secretin was administered by way of an infusion as part of an upper gastrointestinal endoscopy. The secretin was used in this diagnostic procedure at the request of the patient's parents, one of which is an inventor of the present invention. The secretin used in this procedure is known as Secretin-Ferring available from Ferring Laboratories, Inc., Suffern, New York (See Appendix A). The secretin was dissolved in a […] of sodium chloride and administered in a dosage of 2 clinical units (CU) per kilogram (kg) body weight by intravenous injection over one minute. […] The diagnostic tests performed on the patient during this procedure also indicated gastric inflammation. […] The following Table I summarizes the improvements observed in the patient within 3 weeks after the infusion of secretin.

[2] = test system: patient, a child with symptoms of autism; assay: Daily transdermal secretin with DMSO in the same patient (Example 2); type: in vivo, human
Protocol: At the time of this treatment, the patient was […]. Secretin was administered transdermally using pharmaceutical grade dimethyl sulfoxide (DMSO) (generally 99.9% pure) available from Clinic Service Co., Box 2512, Hemet Calif. 92543. The secretin (Secretin-Ferring) was administered daily in a dosage of about 75 CU over a five day period (i.e., about 15 CU daily). For each treatment, about 4 drops of DMSO were placed onto the skin of the patient, about 15 CU of the crystalline secretin was placed onto the DMSO, and the composition was rubbed into the skin.

[3] = test system: abnormal opioid peptides in autistic children; conditions: autistic children that responded to casein free and gluten free diet; measured before and after infusion; cited from earlier work

secretin (HSDGTFTSELSRLRDSARLQRLLQGLV; not fully specified; ends and bridges not checked; UniProt P63298 33-59, looked up) [polypeptide hormone secreted by the mucosa of the duodenum and upper jejunum; used as Secretin-Ferring from Ferring Laboratories]
time at which the rate of progress appeared to decrease ([1]; after first infusion, behavioral improvements continued): about 5 weeks | SPECT scan perfusion of the right posterior parietal and right temporal lobes ([1]; after the treatment): improved | rubella titers ([1]; after the treatment, before: 5.8): 2.3 | serotonin levels in blood ([1]; blood tests after the treatment): a rise in serotonin levels | pancreatic juice released ([1]; immediately after 2 CU/kg iv over one minute, usual rate 1-2 ml/min): approximately 10 ml/min | result of second and third infusions ([1]; second infusion about 9 months after the first, third about three months after the second): achieved the same results | spinning episodes ([1]; within 3 weeks after infusion, before: 1-2 times/week): No spinning episodes. | toilet training ([1]; within 3 weeks after infusion, before: diapers only): Completely potty trained. | eye contact, share of the time ([1]; within 3 weeks after infusion, before: minimal eye contact): Eye contact 75% of the time. | connections made between language and objects ([1]; within 3 weeks after infusion, before: no apparent connections): Many connections made between | words spoken ([1]; within 3 weeks after infusion, before: two words): 100's of words-will repeat some | interaction with videos ([1]; within 3 weeks after infusion, before: watch videos): Now, gets “involved” interactively | water consumption ([1]; within 3 weeks after infusion, no change, before: approximately 50 cups per day): change approximately 50 cups per cups per day | chronic abnormal bowel movements ([1]; within days after administration, no change in diet): became normal | language ([2]; transdermal with DMSO, about 15 CU daily, within about 6 months): progressed to spontaneous and conversational language | autistic behavioral symptoms on stopping the daily dose ([2]; when the daily dose of secretin is stopped): the autistic behavioral symptoms return | abnormal opioid peptides after secretin infusion [3]: the peptides disappeared
